The record followed here is patent US20090144861A1, “Fungicides and Bioregulatory Mixtures” (BASF Aktiengesellschaft, priority 2005, published 2009).

Test [1] relates to Puccinia recondita. Description: Curative activity against brown rust of wheat (Puccrt K1). The test is classed as in vivo, Puccinia recondita on wheat seedlings cultivar Kanzler. The note with it: sprayed 1 day after inoculation, assessed after 7 days. Here is the method: The active compounds were prepared separately or jointly as a stock solution with 25 mg of active compound which was made up to 10 ml using a mixture of acetone and/or DMSO and the emulsifier Uniperol® EL (wetting agent having emulsifying and dispersing action based on ethoxylated alkylphenols) in a volume ratio of solvent/emulsifier of 99 to 1. The mixture was then made up to 100 ml with water. This stock solution was diluted with the solvent/emulsifier/water mixture described to the concentration of active compounds stated below. […] The expected efficacies of mixtures of active compounds were determined using Colby's formula (Colby, S. R. “Calculating synergistic and antagonistic responses of herbicide combinations”, Weeds, 15, pp. 20-22, 1967) and compared with the observed efficacies. E=x+y−x×y/100 Use Example 1—Curative activity against brown rust of wheat caused by Puccinia recondita (Puccrt K1) Leaves of potted wheat seedlings of the cultivar “Kanzler” were inoculated with a spore suspension of brown rust (Puccinia recondita). The pots were then placed in a chamber with high atmospheric humidity (90 to 95%) at 20 to 22° C. for 24 hours. During this time, the spores germinated and the germ tubes penetrated into the leaf tissue. The next day, the infected plants were sprayed to run off point with the active compound solution described above at the active compound concentration stated below. […] The extent of the rust fungus development on the leaves was then determined. The visually determined values for the percentage of infected leaf area were initially converted into a mean value and then converted into efficacies in % of the untreated control. […] The expected efficacies for active compound combinations were determined using Colby's formula (Colby, S. R. “Calculating synergistic and antagonistic responses of herbicide Combinations”, Weeds, 15, pp. 20-22, 1967) and compared to the observed efficacies. […]

The subject of test [2] is Erysiphe [syn. Blumeria] graminis forma specialis. tritici. Description: Activity against mildew of wheat (Erysgt P1). The format is in vivo, Erysiphe graminis f. sp. tritici on wheat seedlings. The note with it: sprayed 24 hours before inoculation, assessed after 7 days. How it is done: The active compounds were prepared separately or jointly as a stock solution with 25 mg of active compound which was made up to 10 ml using a mixture of acetone and/or DMSO and the emulsifier Uniperol® EL (wetting agent having emulsifying and dispersing action based on ethoxylated alkylphenols) in a volume ratio of solvent/emulsifier of 99 to 1. The mixture was then made up to 100 ml with water. This stock solution was diluted with the solvent/emulsifier/water mixture described to the concentration of active compounds stated below.
The visually determined percentages of infected leaf areas or the measured elongation were converted into efficacies in % of the untreated control:
The efficacy (E) is calculated as follows using Abbot's formula: […]
The expected efficacies of mixtures of active compounds were determined using Colby's formula (Colby, S. R. “Calculating synergistic and antagonistic responses of herbicide combinations”, Weeds, 15, pp. 20-22, 1967) and compared with the observed efficacies.
Use Example 2—Activity against mildew of wheat caused by Erysiphe [syn. Blumeria] graminis forma specialis. tritici (Erysgt P1)
Leaves of potted wheat seedlings were sprayed to run off point with an aqueous suspension having the active compound concentrations stated below. The suspension or emulsion had been prepared as described above. 24 hours after the spray coating had dried on, the plants were dusted with spores of mildew of wheat (Erysiphe [syn. Blumeria] graminis forma specialis. tritici). The test plants were then placed in a greenhouse at temperatures between 20 and 24° C. and at 60 to 90% relative atmospheric humidity. After 7 days, the extent of the mildew development was determined visually in % infection of the entire leaf area.
The visually determined values for the percentage of infected leaf area were initially converted into a mean value and then converted into efficacies in % of the untreated control. An efficacy of 0 means the same degree of infection as in the untreated control, an efficacy of 100 means 0% infection. The expected efficacies for active compound combinations were determined using Colby's formula (Colby, S. R. “Calculating synergistic and antagonistic responses of herbicide Combinations”, Weeds, 15, pp. 20-22, 1967) and compared to the observed efficacies.

[3] abbreviates: Conc. 1 mg/ml, efficacy in % of untreated control.

`Fc1ccc(C2(Cn3cncn3)OC2c2ccccc2Cl)cc1` (stereo not shown) [Epoxiconazole, epoxiconazole]: the Observed activity is listed as 11% in test [1] (Conc. 0.25 mg/ml, efficacy in % of untreated control); 0% in test [2] (Conc. 0.25 mg/ml); 33% in test [2] (setting [3]).
On to `CCC(=O)C1=C([O-])CC(C(=O)[O-])CC1=O.[Ca+2]` (stereo not shown) [Prohexadione-Ca, prohexadione-calcium], for which the Observed activity in test [1] (Conc. 0.06 mg/ml), in test [1] (Conc. 1 mg/ml), in test [2] (Conc. 0.25 mg/ml) and in test [2] (setting [3]) was 0% in each case.
